pIC50: −log10 of the molar value. Like-named read-outs stand apart in the source and are kept apart here.
Columns and labels:
[1] = target: Human JNK1α1 (Homo sapiens, UniProt P45983); assay: JNK assay in vitro (phosphorylation of GST-ATF2 with [γ-33P]ATP), JNK1; assay type: biochemical
Procedure: (§1) JNK activity was measured by phosphorylation of GST-ATF2 (19-96) with [γ-^33P] ATP. […] Human JNK2α2 assay contains 1 nM enzyme, 1 μM ATF2, 8 μM ATP with 1 μCi [γ-^33P] ATP. Human JNK1α1 assay contains 2 nM enzyme, 1 μM ATF2, 6 μM ATP with 1 μCi [γ-^33P] ATP. Human JNK3 (Upstate Biotech #14-501M) assay contains 2 nM enzyme, 1 μM ATF2, 4 μM ATP with 1 μCi [γ-33P] ATP. The enzyme assay was carried out in the presence or absence of several compound concentrations. JNK and compound were pre-incubated for 10 min., followed by initiation of the enzymatic reaction by adding ATP and the substrate. The reaction mixture was incubated at 30° C. for 30 min. At the end of incubation, the reaction was terminated by transferring 25 μl of the reaction mixture to 150 μl of 10% glutathione Sepharose® slurry (Amersham # 27-4574-01) containing 135 mM EDTA. The reaction product was captured on the affinity resin, and washed on a filtration plate (Millipore, MABVNOB50) with phosphate buffered saline for six times to remove free radionucleotide. The incorporation of ^33P into ATF2 was quantified on a microplate scintillation counter (Packard Topcount). Compound inhibition potency on JNK was measured by IC50 value generated from ten concentration inhibition curves fitted into the 3-parameter model: % inhibition=Maximum/(I+(IC50/[Inhibitor])^slope). Data were analyzed on Microsoft Excel for parameter estimation.

[2] = test system: c-jun; assay: c-jun of Table 2 (method not described); assay type: cell-based
[3] = target: Human JNK2α2 (Homo sapiens, UniProt P45984); assay: JNK assay in vitro (phosphorylation of GST-ATF2 with [γ-33P]ATP), JNK2; assay type: biochemical
Chain of Human JNK2α2 (P45984 whole entry): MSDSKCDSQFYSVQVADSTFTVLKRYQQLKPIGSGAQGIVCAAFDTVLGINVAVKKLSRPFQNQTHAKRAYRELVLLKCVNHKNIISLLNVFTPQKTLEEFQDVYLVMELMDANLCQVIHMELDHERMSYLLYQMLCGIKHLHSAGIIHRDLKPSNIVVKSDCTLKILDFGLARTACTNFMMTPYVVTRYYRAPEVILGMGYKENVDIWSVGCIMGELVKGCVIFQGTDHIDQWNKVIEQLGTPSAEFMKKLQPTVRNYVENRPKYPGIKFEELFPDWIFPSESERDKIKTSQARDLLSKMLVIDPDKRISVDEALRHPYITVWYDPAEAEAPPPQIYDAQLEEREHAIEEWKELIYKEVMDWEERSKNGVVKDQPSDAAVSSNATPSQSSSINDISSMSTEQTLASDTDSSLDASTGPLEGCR
Procedure: as §1

[4] = test system: TNFα-induced IL-6 production; assay: Rat in vivo TNFα-induced IL-6 production assay; details: 1.5 h, oral gavage, 30 min before TNF-α i.p., blood 90 min after challenge
Procedure: Female Wistar-Han rats procured from Charles River Laboratories were allowed to acclimate for one week prior to use and achieve an approximate body weight of 95-130 g. Rats were administered test compound via oral gavage 30 min prior to an intraperitoneal challenge of 0.5 μg recombinant rat TNF-α (Biosource). Blood was collected via cardiocentesis 90 min after TNF-α challenge. Plasma was prepared using lithium heparin separation tubes (BD microtainer) and frozen at −80° C. until analyzed. IL-6 levels were determined using a rat specific IL-6 ELISA kit (Biosource).

[5] = test system: inflammatory cell infiltration into BAL; assay: Ovalbumin-sensitized asthma model (inflammatory cell infiltration into BAL); assay type: in vivo, rat; details: 10 mg/kg
Procedure: (A) Male Brown-Norway rats are sensitized i.p. with 100 μg of OA (ovalbumin) in 0.2 ml alum once every week for three weeks (day 0, 7, and 14). The week following the last sensitization, the rats are ready for testing. One to 2 days prior to challenge, animals are weighed. On day 21, the rats are dosed q.d. with either vehicle or compound formulation subcutaneously 30 minutes before OA aerosol challenge (1% OA for 45 minutes) and terminated 4 or 24 hours after challenge. At time of sacrifice, rats are anesthetized (urethane, approx. 2 g/kg, i.p.). Plasma is collected from rats for PK at termination. Blood is drawn from the abdominal aorta at termination. A tracheal cannula is inserted and the lungs are lavaged with 3×3 ml PBS. The BAL fluid is analyzed for total leukocyte number and differential leukocyte counts. Total leukocyte number in an aliquot of the cells (20-100 μl) is determined using a Coulter Counter. For differential leukocyte counts, 50-200 μl of the sample is centrifuged in a Cytospin and the slide stained with Diff-Quik. The proportions of monocytes, eosinophils, neutrophils and lymphocytes are counted under light microscopy using standard morphological criteria and expressed as a percentage. The remaining BAL fluid is centrifuged (1500 rpm, 10 min) and the supernatant is stored at −80° C. Lungs are also harvested for protein and/or RNA analyses.

Chain of Human JNK1α1 (P45983 1-384 isoform P45983-2): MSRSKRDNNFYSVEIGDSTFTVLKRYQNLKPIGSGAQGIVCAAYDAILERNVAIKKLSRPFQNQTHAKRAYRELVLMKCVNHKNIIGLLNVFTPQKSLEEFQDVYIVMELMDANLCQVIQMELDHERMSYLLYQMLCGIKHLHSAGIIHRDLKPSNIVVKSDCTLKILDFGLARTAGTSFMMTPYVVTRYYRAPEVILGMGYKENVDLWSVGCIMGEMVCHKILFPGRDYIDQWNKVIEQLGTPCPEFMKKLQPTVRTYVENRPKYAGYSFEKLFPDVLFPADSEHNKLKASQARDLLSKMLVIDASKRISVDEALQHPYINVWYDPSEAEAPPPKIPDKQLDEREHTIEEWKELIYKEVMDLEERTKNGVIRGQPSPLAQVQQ

Row | SMILES | melting point | further results
1 | CCC(CO)NC(=O)[C@H]1CC[C@H](Nc2nccc(-n3ncc4ccccc43)n2)CC1 (some centres unmarked) [Compound 15] |  | pIC50 [1]: 7.17; pIC50 [2]: 5.89; pIC50 [3]: 6.34
2 | COc1cccc2c1cnn2-c1ccnc(N[C@H]2CC[C@H](O)CC2)n1 [Compound 86, 4-[4-(4-methoxyindazol-1-yl)-pyrimidin-2-yl-amino]-cyclohexanol] |  | pIC50 ([1]; Km concentrations of ATP and substrate, 6 μM ATP, 1 μM ATF2): 7.64; pIC50 ([3]; Km concentrations of ATP and substrate, 8 μM ATP, 1 μM ATF2): 6.75
3 | CC(C)C(=O)Nc1cccc2c1ccn2-c1ccnc(N[C@H]2CC[C@H](O)CC2)n1 [Compound 88, N-(1-[2-(4-hydroxy-cyclohexylamino)-pyrimidin-4-yl]-1H-indol-4-yl)-isobutyr-amide] | 211.8 to 212.6 °C | pIC50 [1]: 7.15; pIC50 [3]: 6.32
4 | CS(=O)(=O)CCCOc1cccc2c1cnn2-c1ccnc(N[C@H]2CC[C@H](NC(=O)CN3CCOCC3)CC2)n1 [Compound 159, N-(4-{4-[4-(3-methane-sulfonyl-propoxy)-indazol-1-yl]-pyrimidin-2-ylamino}-cyclohexyl)-2-morpholin-4-yl-acetamide] | 219.2 to 221.1 °C | inhibition in vivo at 10 mg/kg [4]: 57.6%
5 | CC(C)(O)[C@H]1CC[C@H](Nc2nccc(-n3ccc4c(OCCCS(C)(=O)=O)cccc43)n2)CC1 [Compound 166, 2-(4-{4-[4-(3-methanesulfonyl-propoxy)-indol-1-yl]-pyrimidin-2-ylamino}-cyclohexyl)-propan-2-ol] |  | inhibition in vivo at 10 mg/kg [4]: 48.5%; inhibition in vivo at 20 mg/kg [4]: 75.2%
6 | CS(=O)(=O)CCCOc1cccc2c1ccn2-c1ccnc(N[C@H]2CC[C@H](C(=O)N3CC[C@H](O)C3)CC2)n1 [Compound 224, (3-hydroxy-pyrrolidin-1-yl)-(4-{4-[4-(3-methane-sulfonyl-propoxy)-indol-1-yl]-pyrimidin-2-ylamino}-cyclohexyl)-methanone] |  | inhibition in vivo at 20 mg/kg [4]: 68.6%
7 | CS(=O)(=O)CCCOc1cccc2c1ccn2-c1ccnc(N[C@H]2CC[C@H](C(=O)N3CC[C@@H](O)C3)CC2)n1 [Compound 225, (3-hydroxy-pyrrolidin-1-yl)-(4-{4-[4-(3-methane-sulfonyl-propoxy)-indol-1-yl]-pyrimidin-2-ylamino}-cyclohexyl)-methanone] |  | inhibition in vivo at 20 mg/kg [4]: 50.9%
8 | CS(=O)(=O)CCCOc1cccc2c1ccn2-c1ccnc(N[C@H]2CC[C@H](C(=O)N3CCC(N)CC3)CC2)n1.Cl [Compound 233, (4-amino-piperidin-1-yl)-(4-{4-[4-(3-methane-sulfonyl-propoxy)-indol-1-yl]-pyrimidin-2-ylamino}-cyclohexyl)-methanone] | 247 to 248 °C | inhibition in vivo at 20 mg/kg [4]: 57.8%
9 | CC(=O)N1CCN(c2cccc3c2ccn3-c2ccnc(N[C@H]3CC[C@H](N(CCO)S(C)(=O)=O)CC3)n2)CC1 [Compound 320, N-(4-{4-[4-(4-acetyl-piperazin-1-yl)-indol-1-yl]-pyrimidin-2-ylamino}-cyclohexyl)-N-(2-hydroxy-ethyl)-methanesulfonamide] | 244.5 to 248.8 °C | 
10 | CN(C1CCC(Nc2nccc(-n3cc(S(N)(=O)=O)c4ccccc43)n2)CC1)S(C)(=O)=O (centres unmarked) [Compound 321, 1-{2-[4-(methanesulfonyl-methyl-amino)-cyclohexylamino]-pyrimdin-4-yl}-1H-indole-3-sulfonic acid amide] | 246.6 to 248.2 °C | 
11 | C[C@@H]1C[C@H]2[C@@H]3CCC4=CC(=O)C=C[C@]4(C)[C@@]3(F)[C@@H](O)C[C@]2(C)[C@@]1(O)C(=O)CO [Dexamethasone, dexamethasone, reference compound] |  | Eosinophils % inhibition [5]: 41.9%; Eosinophils count in BAL [5]: 0.18 ± 0.11 × 10^5 per mL; Neutrophils % inhibition [5]: 97.5%; Neutrophils count in BAL [5]: 0.04 ± 0.01 × 10^5 per mL; Total cells % inhibition [5]: 23.2%
12 | O[C@H]1CC[C@H](Nc2nccc(-c3n[nH]c4c(C(F)(F)F)cccc34)n2)CC1 [Example 3, trans-4-[4-(7-Trifluoromethyl-1H-indazol-3-yl)-pyrimidin-2-yl-amino]-cyclohexanol] | 265.5 to 270 °C | 
13 | C[C@H]1CC[C@H](Nc2nccc(-n3ncc4c([N+](=O)[O-])cccc43)n2)CC1 [Example 4, trans-(4-Methyl-cyclohexyl)-[4-(4-nitro-indazol-1-yl)-pyrimidin-2-yl]-amine] | 253.9 to 254.8 °C | 
14 | CC(O)CCNC(=O)[C@H]1CC[C@H](Nc2nccc(-n3ncc4ccccc43)n2)CC1 (stereo partly drawn) [Example 5, trans-4-(4-Indazol-1-ylpyrimidin-2-ylamino)-cyclohexane-carboxylic acid (3-hydroxy-butyl)-amide] | 248.5 to 252.5 °C | 
15 | O=C([C@H]1CC[C@H](Nc2nccc(-n3ncc4ccccc43)n2)CC1)N1CCOCC1 [Example 6, trans-[4-(4-Indazol-1-yl-pyrimidin-2-ylamino)-cyclohexyl]-morpholin-4-yl-methanone] | 191 to 192 °C | 
16 | O=C(O)c1cccc2c1ccn2-c1ccnc(N[C@H]2CC[C@H](O)CC2)n1 [Example 7, trans-1-[2-(4-Hydroxy-cyclohexylamino)-pyrimidin-4-yl]-1H-indole-4-carboxylic acid] | 259 to 261 °C | 
17 | Nc1cccc2c1ccn2-c1ccnc(N[C@H]2CC[C@H](O)CC2)n1 [Example 8, trans-4-[4-(4-Aminoindol-1-yl)-pyrimidin-2-ylamino]-cyclohexanol] | 218.9 to 220.1 °C | 
18 | Oc1ccc2c(ccn2-c2ccnc(N[C@H]3CC[C@H](O)CC3)n2)c1 [Example 9, trans-1-[2-(4-Hydroxycyclohexylamino)-pyrimidin-4-yl]-1H-indol-5-ol] | 246.5 to 248 °C | 
19 | OCc1cccc2c1ccn2-c1ccnc(N[C@H]2CC[C@H](O)CC2)n1 [Example 10, trans-4-[4-(4-Hydroxymethylindol-1-yl)-pyrimidin-2-ylamino]-cyclohexanol] | 212 to 213.3 °C | 
20 | CS(=O)(=O)N[C@H]1CC[C@H](Nc2nccc(-n3ncc4ccccc43)n2)CC1 [Example 12, trans-N-[4-(4-Indazol-1-ylpyrimidin-2-ylamino)-cyclohexyl]-methanesulfonamide] | 269.6 to 270.4 °C | 
21 | CC1(O)CCC(Nc2nccc(-n3ncc4ccccc43)n2)CC1 (centres unmarked) [Example 13, 4-(4-Indazol-1-ylpyrimidin-2-ylamino)-1-methylcyclohexanol] | 168.1 to 170.1 °C | 
22 | O=S(=O)(Cc1ccccc1)c1cccc2c1ccn2-c1ccnc(N[C@H]2CC[C@H](O)CC2)n1 [Example 14, trans-4-[4-(4-Phenylmethanesulfonylindol-1-yl)-pyrimidin-2-yl-amino]-cyclohexanol] | 132.1 to 134.5 °C | 
23 | O=c1[nH]n(-c2ccnc(N[C@H]3CC[C@H](O)CC3)n2)c2ccccc12 [Example 16, trans-1-[2-(4-hydroxycyclohexylamino)-pyrimidin-4-yl]-1,2-dihydroindazol-3-one] | 263.5 to 264.4 °C | 
24 | Cn1cc(-c2ccnc(N[C@H]3CC[C@H](O)CC3)n2)c2ccccc21 [Example 17, trans-4-[4-(1-Methyl-1H-indol-3-yl)-pyrimidin-2-ylamino]-cyclohexanol] | 194.5 to 195.3 °C | 
25 | CC(=O)Nc1ccc2cnn(-c3ccnc(N[C@H]4CC[C@H](O)CC4)n3)c2c1 [Example 19, trans-N-{1-[2-(4-Hydroxycyclohexylamino)-pyrimidin-4-yl]-1H-indazol-6-yl}-acetamide] | 288 to 289.5 °C | 
26 | OCc1ccc2cnn(-c3ccnc(N[C@H]4CC[C@H](O)CC4)n3)c2c1 [Example 20, trans-4-[4-(6-Hydroxymethylindazol-1-yl)-pyrimidin-2-ylamino]-cyclohexanol] | 216 to 217.7 °C | 
